Measurements reported in ChEMBL document CHEMBL5029159, “Reduction of Progranulin-Induced Breast Cancer Stem Cell Propagation by Sortilin-Targeting Cyclotriazadisulfonamide (CADA) Compounds” (J Med Chem, 2021).
Active and inactive are the calls of the source. No cut-off for these calls is given here.

Assays:
[1] = Therapeutic index, ratio of CC50 for cytotoxicity against human HEK293T cells to ratio of IC50 for Down modulation of sortilin expression in HEK293T cells tranfected with GFP-tagged sortilin incubated for 24 hrs by flow cytometric analysis; format: toxicity, cell-based; settings: read-out: TI
[2] = Kinetic solubility of compound at pH 7.4 PBS buffer incubated for 30 mins by nephelometry; format: physicochemical; settings: for Kinetic_solubility: buffer, pH 7.4, 0.5 h; for solubility kinetic at 0.5 h: PBS buffer, pH 7.4, read-out: Kinetic_solubility
HEK-293T [3] = experiment: Down modulation of sortilin expression in HEK293T cells tranfected with GFP-tagged sortilin incubated for 24 hrs by flow cytometric analysis; format: functional, cell-based; settings: Homo sapiens
MDA-MB-231 [4] = experiment: Inhibition of mammosphere-forming capacity in ER-negative human MDA-MB-231 cells assessed inhibition of as progranulin-induced mammosphere formation at 1 uM measured after 48 hrs by microscopy; format: functional, cell-based
MCF7 [5] = experiment: Down modulation of sortilin expression in ERalpha-positive human MCF7 cells incubated for 48 hrs by Western blot analysis; format: ADME, cell-based; settings: mcf7, 48 h
MCF7 [6] = experiment: Inhibition of mammosphere-forming capacity in ER-positive human MCF7 cells assessed as inhibition of progranulin-induced mammosphere formation at 1 uM measured after 48 hrs by microscopy; format: functional, cell-based
MDA-MB-231 [7] = experiment: Cytotoxicity against human MDA-MB-231 cells assessed as reduction in cell viability after 48 hrs by alamar blue assay; format: functional, cell-based
[8] = (§1) Cytotoxicity against human HEK293T cells assessed as reduction in cell viability after 72 hrs by alamar blue assay; format: cell-based, HEK-293T; settings: HEK293T cells
MCF7 [9] = experiment: Effect on mammosphere-forming capacity in ER-positive human MCF7 cells measured after 48 hrs by microscopy; format: functional, cell-based
MDA-MB-231 [10] = experiment: Effect on mammosphere-forming capacity in ER-negative human MDA-MB-231 cells measured after 48 hrs by microscopy; format: functional, cell-based
MDA-MB-231 [11] = experiment: Down modulation of sortilin expression in ERalpha-negative human MDA-MB-231 cells incubated for 48 hrs by Western blot analysis; format: ADME, cell-based; settings: mda-mb-231, 48 h
MCF7 [12] = experiment: Cytotoxicity against human MCF7 cells assessed as reduction in cell viability after 48 hrs by alamar blue assay; format: functional, cell-based
HEK-293T [13] = experiment: as §1; format: cell-based; settings: hek-293t, 72 h
MDA-MB-231 [14] = experiment: Inhibition of mammosphere-forming capacity in ER-negative human MDA-MB-231 cells assessed as inhibition of progranulin-induced mammosphere formation at 4 uM measured after 48 hrs by microscopy; format: functional, cell-based
MCF7 [15] = experiment: Inhibition of mammosphere-forming capacity in ER-positive human MCF7 cells assessed as inhibition of progranulin-induced mammosphere formation at 4 uM measured after 48 hrs by microscopy; format: functional, cell-based

| Structure (SMILES) | Kinetic_solubility [2] | Activity (MCF7 [5]) | Activity (MDA-MB-231 [11]) | solubility kinetic at 0.5 h [2] | selectivity ratio at 24 h [1] | IC50 (HEK-293T [3]) | inhibition (MDA-MB-231 [4]) | inhibition (MCF7 [6]) | Activity (MDA-MB-231 [7]) | CC50 at 72 h [8] | Activity (MCF7 [9]) | Activity (MDA-MB-231 [10]) | Activity (MCF7 [12]) | CC50 (HEK-293T [13]) | inhibition (MDA-MB-231 [14]) | inhibition (MCF7 [15]) |
| --- | --- | --- | --- | --- | --- | --- | --- | --- | --- | --- | --- | --- | --- | --- | --- | --- |
| C=C1CN(S(=O)(=O)c2ccc(N(C)C)cc2)CCCN(CC2CCCCC2)CCCN(S(=O)(=O)c2cccc3ccccc23)C1.Cl | 60 µM | Dose-Dependent Effect | Active |  | > 26 | 1900 nM | Active | Active | inactive | > 50000 nM | inactive | inactive | inactive |  |  |  |
| C=C1CN(S(=O)(=O)c2ccc(C)cc2)CCCN(CC2CCCCC2)CCCN(S(=O)(=O)c2ccc(OCCO)cc2)C1.Cl | 59 µM |  |  |  | 1.7 | 9000 nM | Active |  |  |  | inactive | inactive |  | 15000 nM | Active | Active |
| C=C1CN(S(=O)(=O)c2ccc(OC)cc2)CCCN(CC2CCCCC2)CCCN(S(=O)(=O)c2ccc(N(C)C)cc2)C1.Cl | 56 µM | Dose-Dependent Effect | Active |  | 10 | 100 nM | Active | Active | inactive |  | inactive | inactive | inactive | 1000 nM |  |  |

More lines, main results first:

| Kinetic_solubility [2] | Activity (MCF7 [5]) | Activity (MDA-MB-231 [11]) | solubility kinetic at 0.5 h [2] | Structure (SMILES) | selectivity ratio at 24 h [1] | IC50 (HEK-293T [3]) | inhibition (MDA-MB-231 [4]) | inhibition (MCF7 [6]) | Activity (MDA-MB-231 [7]) | CC50 at 72 h [8] | Activity (MCF7 [9]) | Activity (MDA-MB-231 [10]) | Activity (MCF7 [12]) | CC50 (HEK-293T [13]) | inhibition (MDA-MB-231 [14]) | inhibition (MCF7 [15]) |
| --- | --- | --- | --- | --- | --- | --- | --- | --- | --- | --- | --- | --- | --- | --- | --- | --- |
|  |  |  | 61 µM | C=C1CN(S(=O)(=O)c2ccc(C)cc2)CCc2cc(-c3ccccc3)cc(n2)CCN(S(=O)(=O)c2ccc(C)cc2)C1.Cl | > 12.5 | 4000 nM | Active |  |  |  | inactive | inactive |  | > 50000 nM | Active | Active |
| 55 µM | Dose-Dependent Effect | Active |  | C=C1CN(S(=O)(=O)c2ccc(C)cc2)CCCN(CCc2ccccc2)CCCN(S(=O)(=O)c2ccc(C)cc2)C1.Cl | > 50 | 1000 nM | Active | Active | inactive | 50000 nM | inactive | inactive | inactive |  |  |  |
| 57 µM |  |  |  | C=C1CN(S(=O)(=O)c2ccc(C)cc2)CCCN(CC2CCCCC2)CCCN(S(=O)(=O)c2ccc(OC)cc2)C1.Cl | 2.8 | 500 nM |  |  |  |  | inactive | inactive |  | 1400 nM |  |  |
|  |  |  | 43 µM | C=C1CN(S(=O)(=O)c2ccc(C)cc2)CCCN(Cc2ccccc2)CCCN(S(=O)(=O)c2ccc(C)cc2)C1.Cl [CYCLOTRIAZADISULFONAMIDE HYDROCHLORIDE] | > 23 | 2200 nM |  |  |  |  | inactive | inactive |  | > 50000 nM |  |  |
